This note sets out measurements from US11058699B2, “Method and compositions for inhibition of double stranded DNA viruses” (WISCONSIN ALUMNI RESEARCH FOUNDATION, priority 2008, dated 2021).

Entries after “also recorded” stand apart in the source; their conditions may differ.

Data set [1] deals with HPV pseudovirions hpvSEAP. As to the kind of experiment: hpvSEAP pseudovirion infectivity assay (SEAP) in 293T cells. The data set is classed as cell-based, HPV16. Here is the method:
FIG. 6. Early M phase arrest by CDK1 inhibition interferes with HPV infection. (FIG. 6A) 293T cells were treated with a CDK1 inhibitor, purvalanol A (3, 6, and 12 μM) and infected with hpvSEAP. […] The columns represent the mean, the bars represent the standard deviation. (FIG. 6B) Cell cycle arrest at M phase by purvalanol A (12 μM) is shown. Histograms indicate the cell cycle status of DMSO and purvalanol A-treated cells, respectively.
Cell cycle inhibitors block HPV infection. To identify mechanistic pathways and informative modulators of HPV infection, we tested nearly 5,000 compounds in known bioactive molecule libraries Prestwick (Prestwick Chemicals) and LOPAC (Library of Pharmacologically Active Compounds, Sigma), with HPV pseudovirions containing an SV40 promoter-driven secreted alkaline phosphatase (SEAP) reporter gene (hpvSEAP). […] Total RNA was extracted after 48 hours, and expression levels of HPV16 E1 ^E4 RNA transcripts were measured by qRT-PCR using E7, E2, and E5 sequence specific primers.
High throughput screening.
Infectivity assay. […] Infectivity of wild type HPV16 virions was examined by quantitative reverse transcriptase PCR (qRT-PCR) by amplifying viral mRNA signals from HPV16-treated 293TT cells. 293TT cells were infected with 50-100 vge/cell of packaged virus and incubated for 48 hours at 37° C.

The next data set concerns HaCaT cells. As to the kind of experiment: CellTiter-Glo Luminescent cell viability assay in HaCaT cells. The settings on record: 3 μM, 48 hours. For orientation: Cellular ATP, detected with luciferase, serves as a proxy for viable cell number.
The test system of a further data set is wild type HPV16. The experiment in a line: Wild type HPV16 infection of 293T cells, early gene expression by qRT-PCR. The data set is classed as cell-based. The settings on record: 4 hours pre-treatment with 3 μM, 48 hours, compared with neutralizing antibody H16.7E.
For the next data set, the system named is β-actin expression. As to the kind of experiment: Cellular β-actin expression by qRT-PCR in 293T cells. The data set is classed as cell-based, human. The settings on record: 3 μM, 48 hours. A general note: Quantitative PCR measures a nucleic acid by following its amplification.
The next data set relates to hpv16wpA-RL. Format: cell-based, HPV16. Particulars: 293T cells, 24 hour synchronization with aphidicolin, 4 hour treatment 3 μM, 48 hours.
Data set [2] concerns influenza virus vector expressing RL. The data set is classed as cell-based.
Where [3] appears, read: 293 cells, HPV16 pseudoviruses expressing SEAP or Renilla luciferase, or intact infectious HPV16 (early gene expression).

Method for HaCaT cells: The reporter RL activity (FIG. 1A) and cell viability (FIG. 1B) were measured by Renilla Luciferase Assay System (Promega) and CellTiter-Glo Luminescent cell viability assay (Promega), respectively. Human keratinocyte HaCaT cells were inoculated with HPV16 LCR-driven RL containing pseudovirions hpv16wpA-RL after 4 hours of pre-treatment with 3 μM of each compound, and reporter expression/cell viability were scored 48 hours later. The expression value is shown as viability to untreated cells with hpv16wpA-RL.

As to `CC(C)[C@H](CO)Nc1nc(Nc2cccc(Cl)c2)c2ncn(C(C)C)c2n1` [Purvalanol A, purvalanol A], in data set [1] (293T cells, 12 μM, hpvSEAP, 48 hours), the “inhibition of HPV infection” value is reported as “about 5 fold”. For the same molecule, in data set [1] (293T cells, 3, 6 and 12 μM, SEAP after 48 hours), the “inhibition of HPV infection, dose dependence” value is reported as “inhibited HPV infection dose-specifically”.

On to `O=c1[nH]cc(F)c(=O)[nH]1` [5-fluorouracil], for which the “effect on cell viability” value in the data set on HaCaT cells is listed as “did not have any effect”.

Take `C[C@@]1(CO)[C@H](O)CC[C@@]2(C)[C@H]1CC[C@H]1C[C@@H]3C[C@@]12CC[C@]3(O)CO` [aphidicolin]: the “HPV16 gene expression (wild type HPV16 virion infection)” value in the data set on wild type HPV16 was “blocked HPV16 gene expression even more efficiently than a neutralizing antibody”. Moreover, in the data set on β-actin expression, the “cellular β-actin expression” value is reported as “no effect; also recorded: not affected”. In addition, the “inhibition of HPV infection” value in data set [1] (setting [3]) was “significantly and consistently inhibit; also recorded: most significant and consistent inhibition”. For the same molecule, the “HPV infection (RL activity)” value in the data set on hpv16wpA-RL was “efficiently blocked”. Also, the “influenza infection (RL activity)” value in data set [2] is given as “did not significantly affect”.

As for `COc1cc([C@@H]2c3cc4c(cc3[C@@H](O[C@@H]3O[C@@H]5CO[C@@H](C)O[C@H]5[C@H](O)[C@H]3O)[C@H]3COC(=O)[C@H]23)OCO4)cc(OC)c1O` [etoposide], the “HPV16 gene expression (wild type HPV16 virion infection)” value with wild type HPV16 is “blocked HPV16 gene expression even more efficiently than a neutralizing antibody”. In the data set on β-actin expression, the “cellular β-actin expression” value is given as “no effect; also recorded: not affected”. The “inhibition of HPV infection” value in data set [1] (setting [3]) was “most significant and consistent inhibition”; in data set [1] (293 cells, HPV16 pseudoviruses expressing SEAP or Renilla luciferase, or intact infectious HPV16 (early gene expression), listed as etopside), “significantly and consistently inhibit”. In addition, the “HPV infection (RL activity)” value in the data set with hpv16wpA-RL is “efficiently blocked”. The “influenza infection (RL activity)” value in data set [2] is reported as “did not significantly affect”.
